Activity calls are given as the source filed them. No cut-off for these calls is given here.
What was measured:
THP-1 [1] = experiment: Inhibition of PMA-induced MMP9 transcript level in human THP1 cells at 15 uM preincubated for 2 hrs followed by PMA addition measured after 24 hrs by RT-PCR analysis; assay type: functional, cell-based
THP-1 [2] = experiment: Inhibition of PMA-induced monocyte to macrophage differentiation in human THP1 cells assessed as reduction in MMP9 enzyme activity at 15 uM preincubated for 2 hrs followed by PMA addition measured after 48 hrs by gelatin zymographic analysis; assay type: functional, cell-based
THP-1 [3] = experiment: Inhibition of PMA-induced monocyte/macrophage invasion in human THP1 cells at 15 uM preincubated for 2 hrs followed by PMA addition measured after 48 hrs by collagen-coated Boyden chamber invasion assay; assay type: functional, cell-based
THP-1 [4] = experiment: Inhibition of PMA-induced monocyte to macrophage differentiation in human THP1 cells assessed as reduction in MMP2 enzyme activity at 15 uM preincubated for 2 hrs followed by PMA addition measured after 48 hrs by gelatin zymographic analysis; assay type: functional, cell-based
[5] = (§1) Antiinflammatory activity in human THP1 cells assessed as inhibition of PMA-induced TNFalpha secretion at 10 uM preincubated for 2 hrs followed by PMA addition measured after 48 hrs by ELISA; assay type: functional; conditions: THP-1
[6] = (§2) Antiinflammatory activity in human THP1 cells assessed as inhibition of PMA-induced IL-1beta secretion at 10 uM preincubated for 2 hrs followed by PMA addition measured after 48 hrs by ELISA; assay type: functional; conditions: THP-1
[7] = (§3) Antiinflammatory activity in human THP1 cells assessed as inhibition of PMA-induced MCP-1 secretion at 10 uM preincubated for 2 hrs followed by PMA addition measured after 48 hrs by ELISA; assay type: functional; conditions: THP-1
[8] = Cytotoxicity against human THP1 cells assessed as cell viability at 20 uM after 48 hrs by tryphan blue dye exclusion assay relative to control; assay type: functional; conditions: THP-1, 48 h, read-out: Activity
THP-1 [9] = experiment: Antiinflammatory activity in human THP1 cells assessed as inhibition of PMA-induced COX2 mRNA level preincubated for 2 hrs followed by PMA addition measured after 48 hrs by RT-PCR analysis; assay type: functional, cell-based
THP-1 [10] = experiment: Antiinflammatory activity in human THP1 cells assessed as inhibition of PMA-induced TNFalpha secretion preincubated for 2 hrs followed by PMA addition measured after 48 hrs by ELISA; assay type: functional, cell-based
THP-1 [11] = experiment: Antiinflammatory activity in human THP1 cells assessed as inhibition of PMA-induced IL-1beta secretion preincubated for 2 hrs followed by PMA addition measured after 48 hrs by ELISA; assay type: functional, cell-based
THP-1 [12] = experiment: Antiinflammatory activity in human THP1 cells assessed as inhibition of PMA-induced MCP-1 secretion preincubated for 2 hrs followed by PMA addition measured after 48 hrs by ELISA; assay type: functional, cell-based
THP-1 [13] = experiment: Inhibition of PMA-induced monocyte to macrophage differentiation in human THP1 cells assessed as reduction in cell adherence at 15 uM preincubated for 2 hrs followed by PMA addition measured after 48 hrs by phase contrast microscopic analysis; assay type: functional, cell-based
THP-1 [14] = experiment: Inhibition of PMA-induced monocyte to macrophage differentiation in human THP1 cells assessed as reduction in cell size at 15 uM preincubated for 2 hrs followed by PMA addition measured after 48 hrs by mitotracker dye-based confocal microscopic analysis; assay type: functional
THP-1 [15] = experiment: Inhibition of PMA-induced monocyte to macrophage differentiation in human THP1 cells assessed as reduction in LOX-1 transcript level at 15 uM preincubated for 2 hrs followed by PMA addition measured after 24 hrs by RT-PCR analysis; assay type: functional, cell-based
THP-1 [16] = experiment: Inhibition of PMA-induced monocyte to macrophage differentiation in human THP1 cells assessed as reduction in CD-36 transcript level at 15 uM preincubated for 2 hrs followed by PMA addition measured after 24 hrs by RT-PCR analysis; assay type: functional, cell-based
THP-1 [17] = experiment: Inhibition of PMA-induced monocyte to macrophage differentiation in human THP1 cells assessed as reduction in lysosomal activity at 15 uM preincubated for 2 hrs followed by PMA addition measured after 48 hrs by lysotracker dye-based fluorescence microscopic analysis; assay type: functional, cell-based
THP-1 [18] = experiment: Inhibition of PMA-induced MMP1 transcript level in human THP1 cells at 15 uM preincubated for 2 hrs followed by PMA addition measured after 24 hrs by RT-PCR analysis; assay type: functional, cell-based
THP-1 [19] = experiment: Inhibition of PMA-induced monocyte to macrophage differentiation in human THP1 cells assessed as reduction in cell adherence at 20 uM preincubated for 2 hrs followed by PMA addition measured after 48 hrs by phase contrast microscopic analysis; assay type: functional, cell-based
THP-1 [20] = experiment: as §1; assay type: functional
THP-1 [21] = experiment: as §3; assay type: functional
THP-1 [22] = experiment: as §2; assay type: functional

Structure (SMILES)	inhibition at 10 µM [5] [%]	inhibition at 10 µM [6] [%]	inhibition at 10 µM [7] [%]	viability at 20 µM [8] [%]	inhibition (THP-1 [9])	inhibition (THP-1 [10])	inhibition (THP-1 [11])	inhibition (THP-1 [12])	inhibition (THP-1 [20])	inhibition (THP-1 [21])	also measured
CN1C(C(=O)/C=C/c2cn(CC(=O)Nc3cccc(Cl)c3)nn2)=C(O)c2ccccc2S1(=O)=O	91.1	80.4	84	98.2	Active	Dose-dependent effect	Dose-dependent effect	Dose-dependent effect			inhibition (THP-1 [1]): Active; inhibition (THP-1 [2]): Active; inhibition (THP-1 [3]): Active; inhibition (THP-1 [4]): inactive; inhibition (THP-1 [13]): Active; inhibition (THP-1 [14]): Active; inhibition (THP-1 [15]): Active; inhibition (THP-1 [16]): Active; inhibition (THP-1 [17]): Active; inhibition (THP-1 [18]): Active
CN1C(C(=O)/C=C/c2cn(CC(=O)Nc3ccc(Cl)c(C(F)(F)F)c3)nn2)=C(O)c2ccccc2S1(=O)=O	93.2	93.6	88.4	94.3	Active	Dose-dependent effect	Dose-dependent effect	Dose-dependent effect			inhibition (THP-1 [19]): inactive
CN1C(C(=O)/C=C/c2cn(CC(=O)Nc3ccc(C(F)(F)F)cc3)nn2)=C(O)c2ccccc2S1(=O)=O	94.2	91.1	81.1	95.1	Active	Dose-dependent effect	Dose-dependent effect	Dose-dependent effect			inhibition (THP-1 [19]): inactive
CN1C(C(=O)/C=C/c2cn(CC(=O)Nc3cccc(F)c3)nn2)=C(O)c2ccccc2S1(=O)=O	70.7	69.5	48.2	96.5	Active	Dose-dependent effect	Dose-dependent effect	Dose-dependent effect			inhibition (THP-1 [19]): inactive
CN1C(C(=O)/C=C/c2cn(CC(=O)Nc3cccc(C(F)(F)F)c3)nn2)=C(O)c2ccccc2S1(=O)=O	87.6	83.6	85.1	96.2	Active	Dose-dependent effect	Dose-dependent effect	Dose-dependent effect			inhibition (THP-1 [1]): Active; inhibition (THP-1 [2]): Active; inhibition (THP-1 [3]): Active; inhibition (THP-1 [4]): inactive; inhibition (THP-1 [13]): Active; inhibition (THP-1 [14]): Active; inhibition (THP-1 [15]): Active; inhibition (THP-1 [16]): Active; inhibition (THP-1 [17]): Active; inhibition (THP-1 [18]): Active
COc1cccc(-n2cc(/C=C/C(=O)C3=C(O)c4ccccc4S(=O)(=O)N3C)nn2)c1		42.6		94.2					inactive	inactive	
CN1C(C(=O)/C=C/c2cn(-c3cccc(C(F)(F)F)c3)nn2)=C(O)c2ccccc2S1(=O)=O		23.9		93.8					inactive	inactive	
CN1C(C(=O)/C=C/c2cn(-c3cccc(F)c3)nn2)=C(O)c2ccccc2S1(=O)=O	48.3			93						inactive	inhibition (THP-1 [22]): inactive
CN1C(C(=O)/C=C/c2cn(-c3ccc(F)c(Cl)c3)nn2)=C(O)c2ccccc2S1(=O)=O		16.3		94.3					inactive	inactive	
CN1C(C(=O)/C=C/c2cn(-c3ccccc3F)nn2)=C(O)c2ccccc2S1(=O)=O		40.2		96.1					inactive	inactive	
CN1C(C(=O)/C=C/c2cn(-c3ccc(F)cc3)nn2)=C(O)c2ccccc2S1(=O)=O		43.9	58.9	95.3					inactive		
Cc1ccc(NC(=O)Cn2cc(/C=C/C(=O)C3=C(O)c4ccccc4S(=O)(=O)N3C)nn2)cc1	84.7	74.9	87.2	97	Active	Dose-dependent effect	Dose-dependent effect	Dose-dependent effect			inhibition (THP-1 [1]): Active; inhibition (THP-1 [2]): Active; inhibition (THP-1 [3]): Active; inhibition (THP-1 [4]): inactive; inhibition (THP-1 [13]): Active; inhibition (THP-1 [14]): Active; inhibition (THP-1 [15]): Active; inhibition (THP-1 [16]): Active; inhibition (THP-1 [17]): Active; inhibition (THP-1 [18]): Active
